Laboratory results: patent publication US7998995B2 (Exelixis Patent Company LLC, priority 2006, dated 2011)

Test system: T1, LXR
T1 construct: fused on or other part: GST fused to the LBD in the FRET assay
Experiment: Measured EC50 or IC50 for LXR (LXRα and/or LXRβ; assay and subtype not given)
Details: IC50 or EC50 class, subtype not specified
Method: Measured EC50 or IC50 for LXR, and FXR for Compounds of the Invention
LXR and FXR activities for various compounds of the invention are presented in the following table; those compounds with EC50 or IC50 values <10 μM for at least one of LXRα, LXRβ or FXR are considered to be active. In the following Table, IC50 or EC50 data is represented as follows: A<1 μM, B=1-10 μm, and C>10 μM.

Row | EC50 [µM] | SMILES
1 | < 1 | CS(=O)(=O)c1cccc(-c2ccc(-n3cc(-c4nnc(C(F)(F)F)o4)nc3-c3ccccc3Cl)c(Cl)c2)c1 [Example 1025, 2-(1-(3-chloro-3′-(methylsulfonyl)biphenyl-4-yl)-2-(2-chlorophenyl)-1H-imidazol-4-yl)-5-(trifluoromethyl)-1,3,4-oxadiazole]
2 | < 1 | CS(=O)(=O)c1cccc(-c2ccc(-n3cc(-n4cccn4)nc3-c3c(Cl)cccc3Cl)cc2)c1 [Example 999, 1-{2-(2,6-dichlorophenyl)-1-[3′-(methylsulfonyl)biphenyl-4-yl]-1H-imidazol-4-yl}-1H-pyrazole]
3 | < 1 | CC1(C)CSC(c2cn(-c3ccc(-c4cccc(S(C)(=O)=O)c4)cc3Cl)c(-c3c(Cl)cccc3Cl)n2)=N1 [Example 940, 2-{1-[3-chloro-3′-(methylsulfonyl)biphenyl-4-yl]-2-(2,6-dichlorophenyl)-1H-imidazol-4-yl}-4,4-dimethyl-4,5-dihydro-1,3-thiazole]
4 | < 1 | CC1(C)CC(=O)C=C(c2cn(-c3ccc(-c4cccc(S(C)(=O)=O)c4)cc3Cl)c(-c3ccccc3Cl)n2)O1 [Example 982, 6-[1-(3-Chloro-3′-methanesulfonyl-biphenyl-4-yl)-2-(2-chlorophenyl)-1-H-imidazol-4-yl]-2,2-dimethyl-2,3-dihydro-pyran-4-one]
5 | < 1 | CS(=O)(=O)c1cccc(-c2ccc(-n3cc(-c4nccs4)nc3-c3c(Cl)cccc3Cl)cc2)c1 [Example 1014, 2-(2-(2,6-dichlorophenyl)-1-(3′-(methylsulfonyl)biphenyl-4-yl)-1H-imidazol-4-yl)thiazole]
6 | < 1 | Cc1nccn1-c1cn(-c2ccc(-c3cccc(S(C)(=O)=O)c3)cc2)c(-c2c(Cl)cccc2Cl)n1 [Example 1001, 2′-(2,6-dichlorophenyl)-2-methyl-1′-[3′-(methylsulfonyl)biphenyl-4-yl]-1′H-1,4′-biimidazole]
7 | < 1 | CC1(C)COC(c2cn(-c3ccc(-c4cccc(S(C)(=O)=O)c4)cc3Cl)c(-c3c(Cl)cccc3Cl)n2)=N1 [Example 934, 2-{1-[3-chloro-3′-(methylsulfonyl)biphenyl-4-yl]-2-(2,6-dichlorophenyl)-1H-imidazol-4-yl}-4,4-dimethyl-4,5-dihydro-1,3-oxazole]
8 | < 1 | CS(=O)(=O)c1cccc(-c2ccc(-n3cc(C4(O)CC4)nc3-c3ccccc3Cl)cc2)c1 [Example 980, 1-(2-(2-chlorophenyl)-1-(3′-(methylsulfonyl)biphenyl-4-yl)-1H-imidazol-4-yl)cyclopropanol]
9 | < 1 | CCS(=O)(=O)c1cccc(-c2ccc(-n3cc(C4=NC(C)(C)CO4)nc3-c3c(Cl)cccc3Cl)c(Cl)c2)c1 [Example 935, 2-{1-[3-chloro-3′-(ethylsulfonyl)biphenyl-4-yl]-2-(2,6-dichlorophenyl)-1H-imidazol-4-yl}-4,4-dimethyl-4,5-dihydro-1,3-oxazole]
10 | 1 to 10 | CS(=O)(=O)c1cccc(-c2ccc(-n3cc(-c4cc(C(F)(F)F)on4)nc3-c3ccccc3Cl)c(Cl)c2)c1 [Example 990, 3-(1-(3-chloro-3′-(methylsulfonyl)biphenyl-4-yl)-2-(2-chlorophenyl)-1H-imidazol-4-yl)-5-(trifluoromethyl)isoxazole]
11 | < 1 | CC1COC(c2cn(-c3ccc(-c4cccc(S(C)(=O)=O)c4)cc3Cl)c(-c3c(Cl)cccc3Cl)n2)=N1 (stereo not drawn) [Example 938, 2-{1-[3-chloro-3′-(methylsulfonyl)biphenyl-4-yl]-2-(2,6-dichlorophenyl)-1H-imidazol-4-yl}-4-methyl-4,5-dihydro-1,3-oxazole]
12 | < 1 | Cc1cc(-c2cccc(S(C)(=O)=O)c2)ccc1OCc1cc(C(F)(F)F)nn1-c1ccccc1Cl [Example 909, 1-(2-chlorophenyl)-5-({[3-methyl-3′-(methylsulfonyl)biphenyl-4-yl]oxy}methyl)-3-(trifluoromethyl)-1H-pyrazole]
13 | < 1 | CS(=O)(=O)c1cccc(-c2ccc(-n3cc(-c4ccsc4)nc3-c3ccccc3Cl)c(Cl)c2)c1 [Example 997, 1-(3-chloro-3′-(methylsulfonyl)biphenyl-4-yl)-2-(2-chlorophenyl)-4-(thiophen-3-yl)-1H-imidazole]
14 | 1 to 10 | CS(=O)(=O)c1cccc(-c2ccc(OCc3cc(C(F)(F)F)nn3-c3ccccc3Cl)c(Cl)c2)c1 [Example 908, 5-({[3-chloro-3′-(methylsulfonyl)biphenyl-4-yl]oxy}methyl)-1-(2-chlorophenyl)-3-(trifluoromethyl)-1H-pyrazole]

Continued, compound first:

Row | SMILES | EC50 [µM]
15 | CS(=O)(=O)c1cccc(-c2ccc(-n3cc(-n4cccc4C#N)nc3-c3ccccc3C(F)(F)F)cc2)c1 [Example 1010] | < 1
16 | CS(=O)(=O)c1cccc(C#Cc2cc(C(F)(F)F)nn2-c2ccccc2Cl)c1 [Example 108, 1-(2-chlorophenyl)-5-{[3-(methylsulfonyl)phenyl]ethynyl}-3-(trifluoromethyl)-1H-pyrazole] | < 1
17 | CC(C)(c1ccccc1Cl)c1nc(C2CCCN2)cn1-c1ccc(-c2cccc(S(C)(=O)=O)c2)cc1 (stereo not drawn) [Example 976, 2-[1-(2-Chlorophenyl)-1-methylethyl]-1-[3′-(methylsulfonyl)biphenyl-4-yl]-4-pyrrolidin-2-yl-1H-imidazole] | 1 to 10
18 | CS(=O)(=O)c1cccc(-c2ccc(-n3cc(C4CC4)nc3-c3ccccc3C(F)(F)F)cc2)c1 [Example 991, 4-cyclopropyl-1-(3′-(methylsulfonyl)biphenyl-4-yl)-2-(2-(trifluoromethyl)phenyl)-1H-imdazole] | < 1
19 | CS(=O)(=O)c1cccc(-c2ccc(-n3cc(N4CCCCC4)nc3-c3ccccc3C(F)(F)F)cc2)c1 [Example 1004, 1-(1-(3′-(methylsulfonyl)biphenyl-4-yl)-2-(2-(trifluoromethyl)phenyl)-1H-imidazol-4-yl)piperidine] | < 1
20 | NS(=O)(=O)c1cccc(C#Cc2cc(C(F)(F)F)nn2-c2ccccc2Cl)c1 [Example 107, 3-{[1-(2-chlorophenyl)-3-(trifluoromethyl)-1H-pyrazol-5-yl]ethynyl}benzenesulfonamide] | 1 to 10
21 | COc1cc(-c2ccc(-c3cccc(S(C)(=O)=O)c3)s2)n(-c2ccccc2Cl)n1 [Example 933, 1-(2-chlorophenyl)-3-(methyloxy)-5-{5-[3-(methylsulfonyl)phenyl]-2-thienyl}-1H-pyrazole] | > 10
22 | O=C(O)c1cc2cc(OCc3cc(C(F)(F)F)nn3-c3ccccc3Cl)ccc2[nH]1 [Example 9, 5-({[1-(2-chlorophenyl)-3-(trifluoromethyl)-1H-pyrazol-5-yl]methyl}oxy)-1H-indole-2-carboxylic acid] | > 10
23 | CS(=O)(=O)c1cccc(-c2ccc(-n3cc(-c4ccoc4)nc3-c3ccccc3C(F)(F)F)cc2)c1 [Example 995, 4-(furan-3-yl)-1-(3′-(methylsulfonyl)biphenyl-4-yl)-2-(2-(trifluoromethyl)phenyl)-1H-imidazole] | < 1
24 | CS(=O)(=O)c1cccc(CNC(=O)c2cc(C(F)(F)F)nn2-c2ccccc2Cl)c1 [Example 103, 1-(2-chlorophenyl)-N-{[3-(methylsulfonyl)phenyl]methyl}-3-(trifluoromethyl)-1H-pyrazole-5-carboxamide] | > 10
25 | CS(=O)(=O)c1cccc(-c2ccc(NCc3cc(C(F)(F)F)nn3-c3ccccc3Cl)cc2)c1 [Example 928, N-{[1-(2-chlorophenyl)-3-(trifluoromethyl)-1H-pyrazol-5-yl]methyl}-3′-(methylsulfonyl)biphenyl-4-amine] | < 1
26 | CS(=O)(=O)c1cccc(-c2ccc(-n3cc(-c4ncco4)nc3-c3ccccc3C(F)(F)F)cc2)c1 [Example 1011, 2-(1-(3′-(methylsulfonyl)biphenyl-4-yl)-2-(2-(trifluoromethyl)phenyl)-1H-imidazol-4-yl)oxazole] | > 10
27 | Cc1cc(OCc2cc(C(F)(F)F)nn2-c2ccccc2Cl)ccc1-c1cccc(S(C)(=O)=O)c1 [Example 910, 1-(2-chlorophenyl)-5-({[2-methyl-3′-(methylsulfonyl)biphenyl-4-]oxy}methyl)-3-(trifluoromethyl)-1H-pyrazole] | 1 to 10
28 | Cn1cc(-c2cn(-c3ccc(-c4cccc(S(C)(=O)=O)c4)cc3)c(-c3ccccc3C(F)(F)F)n2)cn1 [Example 994, 1-methyl-4-(1-(3′-(methylsulfonyl)biphenyl-4-yl)-2-(2-(trifluoromethyl)phenyl)-1H-imidazol-4-yl)-1H-pyrazole] | < 1
29 | COC(=O)N1CCCC1c1cn(-c2ccc(-c3cccc(S(C)(=O)=O)c3)cc2)c(C(C)(C)c2ccccc2Cl)n1 (stereo not drawn) [Example 977, Methyl 2-{2-[1-(2-chlorophenyl)-1-methylethyl]-1-[3′-(methylsulfonyl)biphenyl-4-yl]-1H-imidazol-4-yl}pyrrolidine-1-carboxylate] | < 1
30 | CS(=O)(=O)c1cccc(-c2ccc(-n3cc(N4CCC(O)C4)nc3-c3ccccc3C(F)(F)F)cc2)c1 (stereo not drawn) [Example 1003, 1-(1-(3′-(methylsulfonyl)biphenyl-4-yl)-2-(2-(trifluoromethyl)phenyl)-1H-imidazol-4-yl)pyrrolidin-3-ol] | < 1
31 | CS(=O)(=O)c1ccc(C#Cc2cc(C(F)(F)F)nn2-c2ccccc2Cl)cc1 [Example 109, 1-(2-chlorophenyl)-5-{[4-(methylsulfonyl)phenyl]ethynyl}-3-(trifluoromethyl)-1H-pyrazole] | < 1
32 | CS(=O)(=O)c1cccc(-c2ccc(-n3cc(-n4cnc(CO)c4)nc3-c3ccccc3C(F)(F)F)cc2)c1 [Example 1009, (1′-(3′-(methylsulfonyl)biphenyl-4-yl)-2′-(2-(trifluoromethyl)phenyl)-1′H-1,4′-biimidazol-4-yl)methanol] | < 1
33 | Cc1cscc1-c1cn(-c2ccc(-c3cccc(S(C)(=O)=O)c3)cc2)c(-c2ccccc2C(F)(F)F)n1 [Example 993, 1-(3′-(methylsulfonyl)biphenyl-4-yl)-4-(4-methylthiophen-3-yl)-2-(2-(trifluoromethyl)phenyl)-1H-imidazole] | 1 to 10
